Test system: Tobacco mosaic virus
Test: Antiviral activity against Tobacco mosaic virus (TMV) assessed as inhibition of viral growth at 1 ug/mL
Assay type: functional
Conditions: read-out: GI

| SMILES | inhibition of growth at 1 µg/mL |
| --- | --- |
| COc1cc2c3c(c4ccc(O)cc4c2cc1OC)CN1CCC[C@@H]1C3 | 70% |
| COc1ccc2c3c(c4cc(OC)c(OC)cc4c2c1)C[C@H]1CCCN1C3 [(-)-ANTOFINE] | 63% |

Source: ChEMBL document CHEMBL3045023, “Design, synthesis, and antiviral activity evaluation of phenanthrene-based antofine derivatives” (2012)
